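Five concentrations, 48 hours, 96-well plates. TGI: total growth inhibition.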 A value given as a limit tells only on which side of the number the result lay.

Data on 15 molecules can be found in PubChem BioAssay (NCI).

Holding throughout (experiment): NCI tumour cell line growth inhibition, 48 h
Assay [1] deals with CAKI-1 renal.
Assay [2] concerns COLO 205 colon.
The subject of assay [3] is HCT-116 colon.
Assay [4] relates to MCF7 breast.
Assay [5] relates to NCI-H226 lung.
For assay [6], the system named is SF-295 CNS.
The subject of assay [7] is SF-539 CNS.
For assay [8], the system named is UACC-257 melanoma.
Assay [9] relates to K-562 leukemia.
Assay [10] has as its system UACC-62 melanoma.

As to `Nc1ccc2ccc(-c3ccc[nH]3)nc2n1`, the TGI in assay [1], in [2], in [3], in assay [4], in assay [5] and in assay [6] was above 100 µM each time. For the same molecule, the TGI in [7] and in assay [8] was above 100 µM each time.
Consider `COc1ccc2c(c1)c1nn(CCN3CCCCC3)c3ccc4c(=O)n(CCN(C)C)c(=O)n2c4c13`, for which the TGI is 0.375 µM in assay [1]; 0.0213 µM in [3]; 0.6 µM in [9]; below 0.0504 µM in [4]; 0.243 µM in assay [5]; below 0.0192 µM in assay [6]. Also, the TGI was 0.975 µM in [7], 0.885 µM in [8] and 0.197 µM in assay [10].
With `C=Cc1nc(C#N)c(N)o1`, the TGI in assay [1], in assay [2], in [3], in assay [9], in [4] and in [5] was above 100 µM in each case. In addition, the TGI in assay [6], in assay [7] and in assay [8] was above 100 µM each time.
For `O=C(N/N=C(/COc1ccccc1Cl)N=Cc1ccncc1)c1ccncc1`, the TGI in assay [1], in assay [2], in [3], in [9], in [4] and in [6] was above 100 µM in each case. Moreover, the TGI in assay [7], in assay [8] and in assay [10] was above 100 µM in each case.
As for `COC([C@@H](OC(=O)c1ccccc1)[C@H](OC(=O)c1ccccc1)C(O)COC(=O)c1ccccc1)n1cc(C)c(=O)[nH]c1=O` (stereo not given in full), the TGI in assay [2] was 51.9 µM; in [3], 87.8 µM; in assay [9] it was above 100 µM; in assay [4], 52.3 µM; in assay [5] it was 74.5 µM; in [6] it was 78.7 µM. For the same molecule, the TGI in [8] was above 100 µM; in assay [10], 56.3 µM.
In the case of `COc1cc(OC2OC(COC(=O)c3cc(O)c(O)c(O)c3)C(O)C(O)C2O)ccc1O` (stereo not given), the TGI in [1], in [2], in assay [3], in [9], in assay [4] and in [5] was above 100 µM in each case. In addition, the TGI in [6], in assay [7] and in assay [8] was above 100 µM in each case.
`COc1c(C)c(C/C=C(\C)CC/C=C(\C)CC/C=C(\C)CCC=C(C)C)c(OC)c2ccccc12`: the TGI in assay [1], in assay [2], in assay [3], in assay [9], in assay [4] and in assay [6] was above 100 µM in each case. In addition, the TGI in assay [7], in [8] and in assay [10] was above 100 µM in each case.
Turning to `O=C1/C(=C/c2ccccc2)NC(=S)N1CN1CCCCC1`, the TGI in [2], in assay [3], in [9], in [4], in assay [5] and in assay [6] was above 100 µM each time. The TGI in assay [8] and in [10] was above 100 µM throughout.
In the case of `CCOC(=O)c1[nH]c2cccc3c2c1CC[C@H](NC(=O)C(F)(F)F)C3=O`, the TGI is 28 µM in assay [1]; above 100 µM in assay [2]; above 100 µM in [3]; above 100 µM in assay [9]; above 100 µM in assay [4]; above 100 µM in assay [5]. Moreover, the TGI in assay [6] is 72.4 µM; in assay [7], above 100 µM; in assay [8] it was above 100 µM.
In the case of `COc1ccc([C@]23CCN4COC[C@@H]([C@H]42)C2(CC3)OCC(C)(C)CO2)cc1OC`, the TGI in assay [1], in assay [2], in assay [3], in assay [9], in assay [4] and in assay [5] was above 100 µM each time. Further, the TGI in assay [6], in assay [8] and in assay [10] was above 100 µM in each case.
Regarding `CCOC(=O)C(=O)CC(=O)C1=C(c2ccccc2OC)CC(c2cccs2)=CC1=O`, the TGI in assay [1], in assay [2], in assay [3], in assay [9], in assay [5] and in assay [6] was above 100 µM throughout. Further, the TGI in assay [7], in assay [8] and in assay [10] was above 100 µM throughout.
Take `c1csc(-c2ccsc2-c2ccsc2)c1`: the TGI in assay [1], in assay [2], in [3], in [9], in [4] and in assay [6] was above 100 µM in each case. Moreover, the TGI in assay [7], in assay [8] and in assay [10] was above 100 µM in each case.
In the case of `O=C(O)CCc1ccc2c(c1)CC1(Cc3ccccc3C1)C2`, the TGI in [2], in [3], in [4], in [5], in assay [6] and in [7] was above 100 µM each time. The TGI in assay [8] and in assay [10] was above 100 µM in each case.
As for `CC(=O)Oc1cc(OC(C)=O)c2c(C)cc(=O)oc2c1`, the TGI in assay [2], in assay [3], in [9], in assay [4], in assay [5] and in assay [6] was above 100 µM throughout. The TGI in assay [7], in assay [8] and in assay [10] was above 100 µM each time.
Consider `COC(=O)c1ccccc1C1=C([N+](=O)[O-])C(c2ccccc2)C(C#N)=C(N)O1` (stereo not given), for which the TGI in assay [2], in [3], in [9], in assay [5], in assay [6] and in assay [7] was above 100 µM each time. For the same molecule, the TGI in assay [8] and in assay [10] was above 100 µM each time.
